Experiment [1] concerns the target T1, RARβ (Homo sapiens, UniProt P10826).
T1 construct: made in house; used as extract protein
T1 sequence (P10826 1-455): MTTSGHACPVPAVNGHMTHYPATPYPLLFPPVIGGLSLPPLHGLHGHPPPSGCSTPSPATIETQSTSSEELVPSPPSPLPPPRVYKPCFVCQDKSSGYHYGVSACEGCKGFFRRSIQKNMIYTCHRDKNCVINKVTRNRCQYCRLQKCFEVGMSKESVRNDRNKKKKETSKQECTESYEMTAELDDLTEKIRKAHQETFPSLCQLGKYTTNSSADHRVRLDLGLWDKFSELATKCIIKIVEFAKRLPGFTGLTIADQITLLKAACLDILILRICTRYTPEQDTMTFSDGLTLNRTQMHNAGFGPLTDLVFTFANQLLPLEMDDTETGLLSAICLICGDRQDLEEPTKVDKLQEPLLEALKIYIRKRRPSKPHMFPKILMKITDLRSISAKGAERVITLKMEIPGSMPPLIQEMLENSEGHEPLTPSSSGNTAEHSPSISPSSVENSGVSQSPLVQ
Put plainly: Ligand binding assay. The conditions noted are these: receptor expressed in Baculovirus; competition with [3H] retinoic acid; Cheng-Prusoff from IC50. As for the experimental part:
(§1) A holoreceptor transactivation assay and a ligand binding assay which measure the ability of the compounds of the invention to bind to the several retinoid receptor subtypes, respectively, are described in published PCT Application No. WO WO93/11755 (particularly on pages 30-33 and 37-41) published on Jun. 24, 1993, the specification of which is also incorporated herein by reference. A description of the ligand binding assay is also provided below.
(§2) All binding assays were performed in a similar fashion. All six receptor types were derived from the expressed receptor type (RAR α, β, τ and RXR α, β, τ) expressed in Baculovirus. Stock solutions of all compounds were prepared as 10 mM ethanol solutions and serial dilutions carried out into 1:1 DMSO; ethanol. Assay buffers consisted of the following for all six receptor assays: 8% glycerol, 120 mM KCl, 8 mM Tris, 5 mM CHAPS 4 mM DTT and 0.24 mM PMSF, pH-7.4@room temperature.
(§3) All receptor biding assays were performed in the same manner. The final assay volume was 250 μl and contained from […] of extract protein depending on receptor being assayed along with 5 nM of [^3H) alltrans retinoic acid or 10 nM [^3H) 9-cis retinoic acid and varying concentrations of competing ligand at concentrations that ranged from 0-10^−5 M. The assays were formatted for a 96 well minitube system. Incubations were carried out at 4° C. until equilibrium was achieved. Non-specific binding was defined as that binding remaining in the presence of 1000 nM of the appropriate unlabeled retinoic acid isomer. At the end of the incubation period, 50 μl of 6.25% hydroxyapitite was added in the appropriate wash buffer. The wash buffer consisted of 100 mM KCl, 10 mM Tris and either 5 mM CHAPS (RXR α, β, τ) or 0.5% Triton X-100 (RAR α, β, τ). The mixture was vortexed and incubated for 10 minutes at 4° C., centrifuged and the supernatant removed. The hydroxyapitite was washed three more times with the appropriate wash buffer. The receptor-ligand complex was adsorbed by the hydroxyapitite. The amount of receptor-ligand complex was determined by liquid scintillation counting of hydroxyapitite pellet.
(§4) After correcting for non-specific binding, IC50 values were determined. […] The IC50 value was determined graphically from a loglogit plot of the data. The Kd values were determined by application of the ChengPrussof equation to the IC50 values, the labeled ligand concentration and the Kd of the labeled ligand.
(§5) The results of ligand binding assay are expressed in Kd numbers. (See Cheng et al. Biochemical Pharmacology Vol. 22 pp 3099-3108, expressly incorporated herein by reference.)

For experiment [2], the target named is T2, RXRα (Homo sapiens, UniProt P19793).
T2 construct: made in house; used as extract protein
T2 sequence (P19793 1-462): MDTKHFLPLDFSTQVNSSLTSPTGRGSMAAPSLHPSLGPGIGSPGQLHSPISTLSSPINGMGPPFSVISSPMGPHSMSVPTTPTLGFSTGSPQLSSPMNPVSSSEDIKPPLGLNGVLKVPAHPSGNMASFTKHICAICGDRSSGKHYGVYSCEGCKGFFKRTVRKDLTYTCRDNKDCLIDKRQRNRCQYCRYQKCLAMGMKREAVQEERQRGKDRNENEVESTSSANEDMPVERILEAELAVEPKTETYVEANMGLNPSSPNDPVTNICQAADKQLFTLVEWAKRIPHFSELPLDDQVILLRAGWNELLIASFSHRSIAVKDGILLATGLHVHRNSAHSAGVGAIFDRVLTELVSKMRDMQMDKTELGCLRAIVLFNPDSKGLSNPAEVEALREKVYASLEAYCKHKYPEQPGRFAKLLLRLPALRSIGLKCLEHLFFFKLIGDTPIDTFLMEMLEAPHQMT
Put plainly: Ligand binding assay. The settings on record: receptor expressed in Baculovirus; competition with [3H] retinoic acid; Cheng-Prusoff from IC50. As for the experimental part: as §1, §2, §3, §4, §5

Experiment [3] concerns ME-180. Put plainly: Cancer cell line assay, incorporation of 3H-thymidine. In kind it is cell-based, human. The conditions noted are these: 10^−11 to 10^−6 molar concentration range, 96 hours. As for the experimental part:
All trans-Retinoic acid (t-RA) (Sigma Chemicals Co., St. Louis, M.) was stored at −70° C. Prior to each experimet the compound was dissolved in 100% ethanol at 1 mM and diluted in culture medium immediately before use. All experiments were performed in subdued light. Controls were assayed using the same concentration of ethanol as present in the experimental plates and this concentration of diluent had no effect in either assay.
ME-180 is a human epidermoid carcinoma cell line derived from the cervix. The tumor was a highly invasive squamous cell carcinoma with irregular cell clusters and no significant keratinization. ME-180 cells were grown and maintained in McCoy's 5a medium (Gibco) supplemented with 10% fetal bovine serum, glutamine and antibiotics. The cells were maintained as monolayer cultures grown at 37° C. in a humidified atmosphere of 5% CO2 in air. The cells were diluted to a concentration of 1×10^5/ml twice a week.
ME-180 wells, harvested by trypsinization were plated in a 96 well flat bottom microtiter plate (Costar) at a density of 2,000 cells/well. The cultures were treated as described above for RPMI 8226 with the following exceptions. After incubation with thymidine the supernatant was carefully removed, and the cells were washed with a 0.5 mM solution of thymidine in phosphate buffered saline. ME180 cells were briefly treated with 50 μl of 2.5% trypsin to dislodge the cells from the plate. AML-193 cells were plated in a 96 well round bottom microtiter plate (Costar) at a density of 1,000 cells/well. To appropriate wells, retinoid test compounds were added at the final concentrations indicated for a final volume of 150 μl/well. The plates were incubated for 96 hours at 37° C. in a humidified atmosphere of 5% CO2 in air. Subsequently, 1 μCi of [5′-^3H]-thymidine (Amersham, U.K., 43 Ci/mmol specific activity) in 25 μl culture medium was added to each well and the cells were incubated for an additional 6 hours.
All cells lines were then processed as follows: the cellular DNA was precipitated with […] trichloroacetic acid onto glass fiber filter mats using a SKATRON multi-well cell harvester (Skatron Instruments, Sterling Va.). Radioactivity incorporated into DNA, as a direct measurement of cell growth, was measured by liquid scintillation counting. The numbers represent the mean disintegrations per minute of incorporated thymidine from triplicate wells±SEM.

Take `CC1(C)CCC(C)(C)c2cc(C(=O)Nc3ccc(C(=O)O)c(F)c3)ccc21` [Compound 2]: the figures for the Kd in experiment [1] and in experiment [2] were 480 nM and greater than 1000 nM, respectively.

As for `CC1(C)CCC(C)(C)c2cc(C(=O)Nc3ccc(C(=O)O)cc3)c(F)cc21` [Compound 4], the Kd was 23 nM in experiment [1] and greater than 1000 nM in experiment [2].

Turning to `CC1(C)CCC(C)(C)c2c(Br)cc(C(=O)Nc3ccc(C(=O)O)c(F)c3)cc21` [Compound 6], the Kd in experiment [1] and in experiment [2] was greater than 1000 nM throughout. In experiment [3], the “proliferation of the tumor cell line (incorporation of radioactive labeled thymidine)” value (“proliferation of the tumor cell line” below) was “significant decrease in the proliferation”.

Take `CC1(C)CCC(C)(C)c2cc(C(=O)Nc3ccc(C(=O)O)c(F)c3)c(O)cc21` [Compound 8]: the Kd in experiment [1] and in experiment [2] was greater than 1000 nM throughout. The “proliferation of the tumor cell line” value in experiment [3] is “significant decrease in the proliferation”.

As to `CC1(C)CC(C)(C)c2cc(C(=O)Nc3ccc(C(=O)O)c(F)c3)cc(Br)c2O1` [Compound 12], the dissociation constant (Kd) in experiment [1] and in experiment [2] was greater than 1000 nM each time. For the same compound, the “proliferation of the tumor cell line” value in experiment [3] is recorded as “significant decrease in the proliferation”.

Take `CC1(C)CC(C)(C)c2cc(C(=O)Nc3ccc(C(=O)O)c(F)c3)cc(C(F)(F)F)c2O1` [Compound 14]: the Kd in experiment [1] and in experiment [2] was greater than 1000 nM throughout. Besides, in experiment [3], the “proliferation of the tumor cell line” value is “significant decrease in the proliferation”.

In the case of `CC1(C)CC(C)(C)c2cc(C(=O)Nc3ccc(C(=O)O)c(F)c3)cc(N=[N+]=[N-])c2O1` [Compound 16, 2-Fluoro-4-[(21′,2′,4′,4′-tetramethyl-8′-azidochroman-6′-yl)carbamoyl]benzoic Acid], the Kd in experiment [1] and in experiment [2] was greater than 1000 nM throughout.

With `CC1(C)CC(C)(C)c2cc(C(=O)Nc3cc(F)c(C(=O)O)c(F)c3)cc(C(F)(F)F)c2O1` [Compound 18, 2,6-Difluoro-4-[(2′,2′,4′,4′-tetramethyl-8′-trifluoromethylchroman-6′-yl)carbamoyl]benzoic Acid], the Kd in experiment [1] and in experiment [2] was greater than 1000 nM each time.

As to `CC1(C)CC(C)(C)c2cc(C(=O)Nc3ccc(C(=O)O)c(F)c3)cc(I)c2O1` [Compound 20], the Kd in experiment [1] and in experiment [2] was greater than 1000 nM in each case. The “proliferation of the tumor cell line” value in experiment [3] was “significant decrease in the proliferation”.

Regarding `Cc1cc(C(=O)Nc2ccc(C(=O)O)c(F)c2)cc2c1OC(C)(C)CC2(C)C` [Compound 22], the Kd in experiment [1] and in experiment [2] was greater than 1000 nM in each case.

Regarding `CC1(C)CCC(C)(C)c2cc(C(=S)Nc3ccc(C(=O)O)cc3)ccc21` [Compound 26], the Kd in experiment [1] and in experiment [2] was greater than 1000 nM each time.

Consider `CC1(C)CC(C)(C)c2cc(C(=O)Nc3ccc(C(=O)O)c(F)c3)ccc2O1` [Compound 32], for which the Kd in experiment [1] and in experiment [2] was greater than 1000 nM throughout.

In the case of `CC1(C)CCC(C)(C)c2c1cc(C(=O)Nc1cc(F)c(C(=O)O)c(F)c1)c(O)c2Br` [Compound 36], the Kd in experiment [1] and in experiment [2] was greater than 1000 nM each time.

Regarding `CC1(C)CCC(C)(C)c2cc(C(=O)Nc3cc(F)c(C(=O)O)c(F)c3)ccc21` [Compound 38], the Kd in experiment [1] and in experiment [2] was greater than 1000 nM throughout.

One may read the Kd as the free concentration of one partner at which half of the binding sites on the other are occupied at equilibrium, for simple one-to-one binding.

Source of the values: patent US6342602B1, “Aryl or heteroaryl amides of tetrahydronaphthalene, chroman, thichroman and 1,2,3,4-tetrahydroquinolinecarboxlic acids, having an electron withdrawing substituent in the aromatic or heteroaromatic moiety, having retinoid-like biological activity” (Allergan Sales, Inc., priority 1995, dated 2002).
